Values of other authors as cited in patent US6593300B1, “(3R)-3-amino-4-carboxybutyraldehyde derivatives inhibiting the release of interleukin-1/beta” (Gyogyszerkutato Intezet Kft., priority 1997, dated 2003).

Key:
[1] = target: T1, ICE (IL-1β converting enzyme) (Homo sapiens, UniProt P29466); conditions: literature reports
T1 sequence (P29466 120-297): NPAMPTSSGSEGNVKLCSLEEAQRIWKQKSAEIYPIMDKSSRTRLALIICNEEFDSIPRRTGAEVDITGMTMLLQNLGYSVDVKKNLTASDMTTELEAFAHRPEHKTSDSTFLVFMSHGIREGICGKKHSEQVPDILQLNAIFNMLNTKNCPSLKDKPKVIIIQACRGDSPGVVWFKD
T1 sequence (P29466 317-404): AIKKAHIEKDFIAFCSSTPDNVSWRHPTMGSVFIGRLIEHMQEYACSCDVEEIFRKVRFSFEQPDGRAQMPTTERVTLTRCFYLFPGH

[2] = target: T2, ICE (Mus musculus, UniProt P29452); conditions: "tissue chamber" model, LPS induced fever or septic shock models
T2 construct: in the mouse, in the “tissue chamber” model as well as in lipopolysaccharide (LPS) induced fever or septic shock models; host or cells: mouse (whole animal, endogenous enzyme)
T2 sequence (P29452 119-296 limits assumed): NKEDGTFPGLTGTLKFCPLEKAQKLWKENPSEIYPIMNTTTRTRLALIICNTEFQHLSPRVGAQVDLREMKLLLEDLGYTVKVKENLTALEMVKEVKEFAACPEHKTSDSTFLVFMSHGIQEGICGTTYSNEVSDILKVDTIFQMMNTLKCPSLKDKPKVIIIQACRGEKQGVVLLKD
T2 sequence (P29452 315-402 limits assumed): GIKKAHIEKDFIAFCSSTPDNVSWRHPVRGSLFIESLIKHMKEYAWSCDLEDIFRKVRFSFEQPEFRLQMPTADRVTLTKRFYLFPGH

Row | Compound | ICE inhibiting effect [1] | in vivo efficacy [2]
1 | O=c1oc(Cl)c(Cl)c2ccccc12 [3,4-dichloro-isocoumarine] | inhibited | 
2 | CC(C)C[C@H](NC(=O)[C@H]1O[C@@H]1C(=O)O)C(=O)NCCCCN=C(N)N [Example E64] | not inhibited | 
3 | O=C(O)CC(CC(=O)COC(=O)c1c(Cl)cccc1Cl)NC(=O)OCc1ccccc1 (centres unmarked) [Z-AhAsp-CH2DCB, Z-NH—CH(CH2COOH)—CH2—CO—CH2DCB] | ineffective | 
4 | O=C(O)C[C@H](NC(=O)OCc1ccccc1)C(=O)COC(=O)c1c(Cl)cccc1Cl [Z-Asp-CH2DCB, Z-NH—CH(CH2COOH)—CO—CH2DCB] | significant ICE inhibiting effect | 
5 | Ac-Tyr-Val-Ala-Asp-H: first reversible inhibitor of ICE, tetrapeptide aldehyde |  | confirmed
